Experimental findings from ChEMBL document CHEMBL5291721, “A preclinical secondary pharmacology resource illuminates target-adverse drug reaction associations of marketed drugs” (Nat Commun, 2023) are described below.

Molecules are shown by their SMILES. A value given as a limit tells only on which side of the number the result lay.

For assay [1], the target named is Delta-type opioid receptor (Homo sapiens, UniProt P41143).
Assay [2] addresses T1, Alpha-2C adrenergic receptor (Homo sapiens, UniProt P18825).
T1 sequence (P18825 whole entry): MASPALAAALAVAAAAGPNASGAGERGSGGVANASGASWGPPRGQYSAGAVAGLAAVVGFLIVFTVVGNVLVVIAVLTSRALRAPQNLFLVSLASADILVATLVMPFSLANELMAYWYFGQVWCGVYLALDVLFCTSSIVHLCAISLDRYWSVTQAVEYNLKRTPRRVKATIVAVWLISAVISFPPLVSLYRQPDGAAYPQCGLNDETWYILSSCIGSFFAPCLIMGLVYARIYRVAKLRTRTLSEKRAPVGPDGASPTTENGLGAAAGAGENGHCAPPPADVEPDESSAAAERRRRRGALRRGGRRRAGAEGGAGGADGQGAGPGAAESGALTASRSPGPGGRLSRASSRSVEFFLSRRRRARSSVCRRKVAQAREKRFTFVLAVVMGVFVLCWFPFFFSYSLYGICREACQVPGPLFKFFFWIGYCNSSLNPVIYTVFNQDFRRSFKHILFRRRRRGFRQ
In kind it is functional.

A further assay has as its target T2, Progesterone receptor (Homo sapiens, UniProt P06401).
T2 sequence (P06401 whole entry): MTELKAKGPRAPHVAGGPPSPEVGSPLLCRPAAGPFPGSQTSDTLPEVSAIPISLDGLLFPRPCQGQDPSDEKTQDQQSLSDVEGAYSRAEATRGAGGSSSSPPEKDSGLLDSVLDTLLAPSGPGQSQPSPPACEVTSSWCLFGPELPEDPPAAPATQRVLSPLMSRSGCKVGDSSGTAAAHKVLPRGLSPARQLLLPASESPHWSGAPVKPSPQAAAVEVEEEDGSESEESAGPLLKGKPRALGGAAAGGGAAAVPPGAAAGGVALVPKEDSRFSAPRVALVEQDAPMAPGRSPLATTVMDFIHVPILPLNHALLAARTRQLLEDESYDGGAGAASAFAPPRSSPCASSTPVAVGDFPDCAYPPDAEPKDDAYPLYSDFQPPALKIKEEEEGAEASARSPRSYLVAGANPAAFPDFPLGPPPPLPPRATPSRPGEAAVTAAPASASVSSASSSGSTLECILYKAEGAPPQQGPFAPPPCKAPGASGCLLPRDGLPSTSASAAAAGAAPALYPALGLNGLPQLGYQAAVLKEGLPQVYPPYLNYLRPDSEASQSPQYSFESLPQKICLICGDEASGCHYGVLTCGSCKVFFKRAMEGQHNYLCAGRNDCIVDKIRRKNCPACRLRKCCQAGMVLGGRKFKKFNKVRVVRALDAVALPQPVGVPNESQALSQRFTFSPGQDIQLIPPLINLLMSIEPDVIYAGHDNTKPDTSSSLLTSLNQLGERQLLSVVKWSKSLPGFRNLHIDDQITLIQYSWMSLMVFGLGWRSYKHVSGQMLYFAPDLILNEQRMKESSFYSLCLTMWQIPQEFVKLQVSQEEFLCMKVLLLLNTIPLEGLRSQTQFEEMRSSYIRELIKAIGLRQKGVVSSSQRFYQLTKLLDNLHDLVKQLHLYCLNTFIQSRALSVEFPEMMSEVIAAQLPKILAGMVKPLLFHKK
The assay is classed as functional.

Assay [3] has as its target 5-hydroxytryptamine receptor 2B (Homo sapiens, UniProt P41595). The assay is classed as functional, cell-based.
The next assay concerns the target Mu-type opioid receptor (Homo sapiens, UniProt P35372). As to the kind of experiment: biochemical. The assay is classed as functional.
Assay [4] addresses T3, Muscarinic acetylcholine receptor M1 (Homo sapiens, UniProt P11229).
T3 sequence (P11229 whole entry): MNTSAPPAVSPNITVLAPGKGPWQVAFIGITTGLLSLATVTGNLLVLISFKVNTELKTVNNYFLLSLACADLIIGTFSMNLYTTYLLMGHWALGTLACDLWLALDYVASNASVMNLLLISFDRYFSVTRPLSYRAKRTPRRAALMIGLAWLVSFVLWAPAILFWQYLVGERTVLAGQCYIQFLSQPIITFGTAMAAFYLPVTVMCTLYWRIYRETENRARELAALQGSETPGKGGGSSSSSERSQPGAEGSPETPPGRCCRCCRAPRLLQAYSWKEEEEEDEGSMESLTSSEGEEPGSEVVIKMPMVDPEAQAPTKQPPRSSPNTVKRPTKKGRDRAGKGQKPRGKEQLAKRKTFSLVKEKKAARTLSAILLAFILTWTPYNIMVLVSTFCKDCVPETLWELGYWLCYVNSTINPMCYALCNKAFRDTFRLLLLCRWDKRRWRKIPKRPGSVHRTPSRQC
In kind it is functional.

Assay [5] has as its target T4, Equilibrative nucleoside transporter 1 (Homo sapiens, UniProt Q99808).
T4 sequence (Q99808 whole entry): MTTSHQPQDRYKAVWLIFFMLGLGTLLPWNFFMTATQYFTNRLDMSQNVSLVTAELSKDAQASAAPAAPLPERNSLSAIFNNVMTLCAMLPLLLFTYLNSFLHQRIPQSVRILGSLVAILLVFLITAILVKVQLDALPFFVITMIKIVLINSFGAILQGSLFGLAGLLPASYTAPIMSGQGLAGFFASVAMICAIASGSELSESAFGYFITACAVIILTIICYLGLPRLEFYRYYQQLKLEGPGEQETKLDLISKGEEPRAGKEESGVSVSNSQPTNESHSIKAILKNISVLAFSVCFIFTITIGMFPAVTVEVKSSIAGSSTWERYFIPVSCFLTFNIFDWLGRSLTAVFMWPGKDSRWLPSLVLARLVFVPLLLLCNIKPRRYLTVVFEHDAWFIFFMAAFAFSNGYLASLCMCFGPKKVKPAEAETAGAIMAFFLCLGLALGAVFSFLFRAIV

The next assay has as its target T5, Adenosine receptor A1 (Homo sapiens, UniProt P30542).
T5 sequence (P30542 whole entry): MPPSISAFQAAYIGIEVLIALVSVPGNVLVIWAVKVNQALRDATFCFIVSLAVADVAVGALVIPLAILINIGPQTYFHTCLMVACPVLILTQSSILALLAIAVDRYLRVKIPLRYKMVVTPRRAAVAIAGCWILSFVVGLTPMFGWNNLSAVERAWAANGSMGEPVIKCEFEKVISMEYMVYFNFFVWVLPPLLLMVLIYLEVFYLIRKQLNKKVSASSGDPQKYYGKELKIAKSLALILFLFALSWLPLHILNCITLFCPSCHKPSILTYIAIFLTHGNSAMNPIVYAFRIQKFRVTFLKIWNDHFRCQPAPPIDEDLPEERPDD

Assay [6] deals with Glutamate receptor ionotropic, NMDA 1 (Rattus norvegicus, UniProt P35439).
Also: assay procedure not described here.

Sequence of Mu-type opioid receptor (P35372 whole entry): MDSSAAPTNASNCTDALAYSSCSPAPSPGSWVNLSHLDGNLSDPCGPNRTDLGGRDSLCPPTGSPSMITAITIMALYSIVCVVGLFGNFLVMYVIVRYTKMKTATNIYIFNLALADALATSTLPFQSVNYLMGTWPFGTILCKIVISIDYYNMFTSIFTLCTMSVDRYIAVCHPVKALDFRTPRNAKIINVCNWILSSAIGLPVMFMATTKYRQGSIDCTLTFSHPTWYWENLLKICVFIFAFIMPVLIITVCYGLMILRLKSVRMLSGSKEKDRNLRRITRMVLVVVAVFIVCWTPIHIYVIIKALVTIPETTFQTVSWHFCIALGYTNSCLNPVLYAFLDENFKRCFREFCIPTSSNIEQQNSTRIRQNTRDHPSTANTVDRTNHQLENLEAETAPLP
Sequence of 5-hydroxytryptamine receptor 2B (P41595 whole entry): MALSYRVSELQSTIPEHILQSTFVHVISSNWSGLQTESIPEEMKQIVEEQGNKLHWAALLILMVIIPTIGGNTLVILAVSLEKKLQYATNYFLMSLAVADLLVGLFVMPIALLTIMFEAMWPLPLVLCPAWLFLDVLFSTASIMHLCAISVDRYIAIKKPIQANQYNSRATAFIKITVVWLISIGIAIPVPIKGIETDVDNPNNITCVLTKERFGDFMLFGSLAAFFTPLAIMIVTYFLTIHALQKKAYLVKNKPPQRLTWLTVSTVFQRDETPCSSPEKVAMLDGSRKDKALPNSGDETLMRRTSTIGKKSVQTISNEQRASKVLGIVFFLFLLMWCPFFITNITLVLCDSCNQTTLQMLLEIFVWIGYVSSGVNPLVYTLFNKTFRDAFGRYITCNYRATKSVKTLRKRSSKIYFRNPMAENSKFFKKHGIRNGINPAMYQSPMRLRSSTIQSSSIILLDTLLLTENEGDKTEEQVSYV
Sequence of Delta-type opioid receptor (P41143 whole entry): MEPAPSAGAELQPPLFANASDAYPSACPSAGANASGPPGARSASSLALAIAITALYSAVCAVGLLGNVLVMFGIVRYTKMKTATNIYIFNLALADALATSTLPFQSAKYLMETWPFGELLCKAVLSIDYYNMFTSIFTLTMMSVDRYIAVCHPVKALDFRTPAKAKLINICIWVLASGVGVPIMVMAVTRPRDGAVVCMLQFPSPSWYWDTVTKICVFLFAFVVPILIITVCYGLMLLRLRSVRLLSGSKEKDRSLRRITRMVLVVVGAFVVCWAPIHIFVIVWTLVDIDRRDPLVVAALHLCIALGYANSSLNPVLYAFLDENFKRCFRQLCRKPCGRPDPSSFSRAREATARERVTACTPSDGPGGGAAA

For orientation: AC50 means the concentration at which the activity in the assay is half-maximal. The low end stands for greater potency, the high end for weaker potency. As to `CC(=O)SC[C@@H](C)C(=O)N1CCC[C@H]1C(=O)N[C@@H](Cc1ccccc1)C(=O)O`, the AC50 (in [1]; in assay [2]; at Progesterone receptor; in assay [3]; at Mu-type opioid receptor; in [4]) was > 30 µM in each case. The AC50 (in assay [5]; on Adenosine receptor A1; in assay [6]) was > 30 µM each time.

Take `NC(=O)CN1CCCC1=O`: the AC50 (in assay [1]; in [2]; at Progesterone receptor; in [3]; at Mu-type opioid receptor; at Adenosine receptor A1) was > 30 µM in each case. Further, the AC50 in assay [6] is > 30 µM.

For `C[N@+]1(CCF)[C@@H]2CC[C@H]1C[C@@H](OC(=O)C(O)(c1ccccc1)c1ccccc1)C2`, the AC50 in assay [1] was > 30 µM; in [2], > 30 µM; on Progesterone receptor, > 30 µM; in assay [3] it was > 30 µM; at Mu-type opioid receptor it was > 30 µM; in [4] it was 0.0066 µM. Also, the AC50 (in [5]; on Adenosine receptor A1; in assay [6]) was > 30 µM each time.

Regarding `CC(=O)O[C@H](CC(=O)[O-])C[N+](C)(C)C` [ACETYLCARNITINE], the concentration at half-maximal activity (AC50) (in [1]; in assay [2]; on Progesterone receptor; in assay [3]; at Mu-type opioid receptor; in assay [4]) was > 30 µM in each case. Also, the half-maximal activity concentration (AC50) (in assay [5]; on Adenosine receptor A1; in assay [6]) was > 30 µM in each case.

Consider `CCN1CCCC1CNC(=O)c1cc(S(=O)(=O)CC)c(N)cc1OC` (stereo not given) [AMISULPRIDE], for which the AC50 in [1] was > 30 µM; in [2], 0.71 µM; on Progesterone receptor it was > 30 µM; on Mu-type opioid receptor it was > 30 µM; in assay [4], > 30 µM; in assay [5], > 30 µM. Further, the concentration at half-maximal activity (AC50) (at Adenosine receptor A1; in [6]) was > 30 µM throughout.

`O=C(O)CCNC(=O)c1ccccc1` [BETAMIPRON]: the AC50 (in [1]; in [2]; on Progesterone receptor; in [3]; on Mu-type opioid receptor; in assay [5]) was > 30 µM in each case. In addition, the AC50 (at Adenosine receptor A1; in assay [6]) was > 30 µM each time.

`C=C1/C(=C\C=C2/CCC[C@]3(C)[C@@H]([C@H](C)/C=C/[C@@H](O)C4CC4)CC[C@@H]23)C[C@@H](O)C[C@@H]1O` [CALCIPOTRIENE]: the AC50 in assay [1] is > 30 µM; in assay [2] it was > 30 µM; at Progesterone receptor it was 20 µM; in assay [3], > 30 µM; at Mu-type opioid receptor, > 30 µM; in [4], > 30 µM. Besides, the concentration at half-maximal activity (AC50) (in assay [5]; on Adenosine receptor A1; in assay [6]) was > 30 µM in each case.

With `CCOC(=O)O[C@]1(C(=O)OCCl)CC[C@H]2[C@@H]3CCC4=CC(=O)C=C[C@]4(C)[C@H]3[C@@H](O)C[C@@]21C` [LOTEPREDNOL ETABONATE], the AC50 (in [1]; in assay [2]; in [3]; on Mu-type opioid receptor; in [4]; in assay [5]) was > 30 µM each time. Moreover, the AC50 (on Adenosine receptor A1; in [6]) was > 30 µM in each case.

`O=C1CN=C(c2ccccc2)c2cc([N+](=O)[O-])ccc2N1` [NITRAZEPAM]: the half-maximal activity concentration (AC50) in assay [1] was > 30 µM; in [2], > 10 µM; on Progesterone receptor, > 10 µM; in assay [3] it was > 10 µM; on Mu-type opioid receptor, > 30 µM; in [5] it was > 10 µM. Also, the AC50 (on Adenosine receptor A1; in assay [6]) was > 10 µM in each case.

`C#CCOc1ccc(N)cc1C(=O)NCCCC` [PARSALMIDE]: the AC50 (in [1]; in [2]; at Progesterone receptor; in assay [3]; at Mu-type opioid receptor; in assay [4]) was > 30 µM each time. For the same compound, the concentration at half-maximal activity (AC50) (at Adenosine receptor A1; in [6]) was > 30 µM in each case.

`COc1ccc2nc3cc(Cl)ccc3c(Nc3cc(CN4CCCC4)c(O)c(CN4CCCC4)c3)c2n1` [PYRONARIDINE]: the concentration at half-maximal activity (AC50) in assay [1] was > 30 µM; in assay [2], 21 µM; in assay [3], > 30 µM; on Mu-type opioid receptor, > 30 µM; in [4], > 30 µM; in assay [5], 21 µM. In addition, the AC50 (on Adenosine receptor A1; in [6]) was > 30 µM throughout.

Turning to `CCN(CC)CCNC(=O)c1cc(S(C)(=O)=O)ccc1OC` [TIAPRIDE], the AC50 in assay [1] is > 30 µM; in [2], > 30 µM; on Progesterone receptor it was > 30 µM; in assay [3] it was 29 µM; on Mu-type opioid receptor, > 30 µM; in assay [5], > 30 µM. Moreover, the half-maximal activity concentration (AC50) (on Adenosine receptor A1; in [6]) was > 30 µM in each case.

As to `NC1CCN(c2nc3c(cc2F)c(=O)c(C(=O)O)cn3-c2ccc(F)cc2F)C1` (stereo not given) [TOSUFLOXACIN], the AC50 (in assay [1]; in [2]; on Progesterone receptor; in [3]; at Mu-type opioid receptor; in assay [5]) was > 30 µM each time. The AC50 (on Adenosine receptor A1; in assay [6]) was > 30 µM each time.

With `CCC(COC(=O)c1cc(OC)c(OC)c(OC)c1)(c1ccccc1)N(C)C` (stereo not given) [TRIMEBUTINE], the AC50 is 4 µM in assay [1]; > 30 µM in assay [2]; > 30 µM on Progesterone receptor; > 30 µM in assay [3]; 0.2 µM at Mu-type opioid receptor; > 30 µM in [4]. Further, the concentration at half-maximal activity (AC50) (at Adenosine receptor A1; in assay [6]) was > 30 µM throughout.
